Source: patent publication US20210063414A1, “METHODS FOR PREVENTING AND/OR TREATING BONE LOSS CONDITIONS BY MODULATING IRISIN” (Dana-Farber Cancer Institute, Inc., priority 2018, published 2021)
Entries after “also recorded” stand apart in the source; their conditions may differ.

Experiments:
[1] = system: primary inguinal fat cells; assay: Ucp1 mRNA in primary inguinal fat cells; format: cell-based, mice; conditions: 10 μM peptide
Experimental: FIG. 18A-FIG. 18B show mRNA and protein levels of indicated genes. 1 mg/kg irisin was injected to 8-week old mice every other day for 6 days. mRNA levels of indicated genes in inguinal fat were analyzed by qRT-PCR. Cyclophilin was used for housekeeping gene (FIG. 18A). Inguinal fats were also lysed to detect the indicated protein level using immunoblot analysis (FIG. 18B). FIGS. 18C and 18D show mRNA and protein levels of indicated genes. Mice were treated and analyzed as (A-B) with addition of coinjection of […] control RGD peptide or cyclo RGDyK (cRGDyK). mRNA levels of indicated genes in inguinal fat were analyzed by qRT-PCR. Cyclophilin was used for house-keeping gene (FIG. 18C). Inguinal fats were also lysed to detect the indicated protein level using immunoblot analysis (FIG. 18D). […] Ucp1 mRNA level was analyzed by qRT-PCR. […]
Inguinal fat tissue from 6 weeks old mice was dissected and washed with PBS, minced and digested for 1 hour at 37° C. in PBS containing 10 mM CaCl2, 2.4 U/ml dispase II (Roche) and 10 mg/ml collagenase D (Roche). […] After that, cells were maintained in 1 μM rosiglitazone in the presence of 0, 0.5, 5 or 50 ng/ml recombinant […] his-tag irisin protein for 4 days with medium change every other day. mRNA levels were analyzed as described in gene expression analysis. […]

MLO-Y4 cells = assay: Integrin-like signaling (pFAK, pZyxin, pAKT, pCREB) in MLO-Y4 cells, immunoblot; format: cell-based; conditions: MLO-Y4, inhibitor pre-treatment 10 minutes before irisin
Experimental: Integrin heterodimer binds to its ligand. The interaction results in phosphorylation of FAK and Zyxin, followed by phosphorylation of AKT (at T308) and CREB. PM is plasma membrane. FIG. 2C and FIG. 2D show the immunoblots. MLO-Y4 cells were seeded and incubated until 60% cell density. The cells were incubated with serum free medium (FreeStyle™ 293 medium) for 4 hours and were treated for indicated time with 10 nM norepinephrine or irisin (FIG. 2C) or indicated concentrations of irisin for 10 minutes (FIG. 2D). Cells were lysed to detect the indicated protein level using immunoblot analysis.
Certain materials and methods were used to generate the results described herein. For example, the data shown in FIG. 1A resulted from MLO-Y4 (an osteocyte-like cell line) cells treated with the indicated concentration of irisin and hydrogen peroxide for 4 hours. Cells were stained with Hoechst 33342 (ThermoFisher Scientific, catalog number H3570) and Eth-D1 (ThermoFisher Scientific, catalog number E1169) and analyzed to determine the percentage of cell death using ImageJ. The data shown in FIG. 2D resulted from MLO-Y4 incubated in serum free medium (FreeStyle™ 293 expression medium, ThermoFisher Scientific, catalog number 12338018) for 4 hours followed by treatment of indicated concentrations of irisin for 10 minutes. Cells were lysed to detect the indicated protein level using immunoblot analysis (Cell Signaling Technology, catalog numbers 3283S, 3285S, 8467S, 3553S, 9198S, and 9104S; Abcam, catalog number ab49900-100ul). The data shown in FIG. 3 resulted from 3T3-F442A cells incubated in serum free medium for 4 hours followed by treatment of indicated concentrations of irisin for 10 minutes. Cells were lysed by RIPA buffer to detect the indicated protein level using immunoblot analysis. The data shown in FIG. 4 were generated from 100 nM flag-tagged irisin (Enzo life sciences, catalog number ADI-908-307-3010) incubated with 5 nM of the indicated 6 his-tag integrins (R & D Systems Inc., catalog numbers 7064-AB-025, 5668-A4-050, 5438-A9-050, 6357-AB-050, and 6579-AV-025) in the presence of RGDS peptide (R & D Systems Inc., catalog number 3498/10) or its control peptide (Enzo Life Sciences, catalog Number BML-P701-0005) followed by immunoprecipitation using 6 his-tag beads (ThermoFisher Scientific, catalog number R901-01). Co-precipitated irisin was analyzed by immunoblot analysis against flag tag (Sigma Aldrich, catalog number A8592). The data shown in FIGS. 5A and 5B were generated from MLO-Y4 cells treated and analyzed as in the experiments used to generate the data shown in FIG. 2D, except that pre-treatment of 100 nM RGDS (FIG. 5A) or echistatin (R & D Systems Inc., catalog number 3202/100U) (FIG. 5B) for 10 minutes was performed before irisin treatment. The data shown in FIGS. 6A and 6B were generated from MLO-Y4 cells incubated in serum free medium for 3 hours followed by treatment of indicated time of 10 nM irisin for 16 hours. RNAs were extracted from the cells and the sclerostin mRNA level was analyzed by qPCR (FIG. 6A) or treated and analyzed as in (FIG. 6A), except that pre-treatment of 10 μM RGDS, RGDyK (Selleck, catalog number S7844), or echistatin was performed for 10 minutes before irisin treatment. The data shown in FIGS. 7A and 7B were generated from 8 week-old mice injected with the indicated dose of irisin for 6 days. Tibias were collected and treated with collagenase to obtain mRNA from the osteocyte-enriched bones. Sclerostin mRNA level was analyzed by qPCR (FIG. 7A). Serum was collected to analyze the sclerostin protein level using ELISA kit (R&D Systems Inc., catalog number MSST00) (FIG. 7B). The data shown in FIG. 8 were generated from 8 week-old mice injected with the indicated dose of irisin for 6 days. Epididymal fats were collected, RNAs were extracted from the tissues, and mRNA levels of the indicated genes were analyzed by qPCR. […]

Row | Compound | effect on irisin-induced gene expression (Ucp1) [1] | effect of integrin inhibitor on irisin-induced signaling (phosphorylation of FAK, Zyxin, CREB) (MLO-Y4 cells)
1 | N=C(N)NCCC[C@@H]1NC(=O)[C@H](CCCCN)NC(=O)[C@@H](Cc2ccc(O)cc2)NC(=O)[C@H](CC(=O)O)NC(=O)CNC1=O [cyclo RGDyK] | prevented irisin-induced gene expression | block irisin-induced signaling
2 | RGDS peptide: classical integrin competitive inhibitory peptide, commercially available form of the RGD peptide | – | most irisin signaling in osteocytes was inhibited; also recorded: dramatically suppressed
